Experiment [1] has as its target KDR (VEGFR2) (Homo sapiens, UniProt P35968). Briefly: KDR (VEGFR2) in vitro kinase activity assay (HTRF kinEASE TK). Format: biochemical. To be noted: for inhibition at 0.01 µM: compound 10 nM, read-out: VEGFR2 inhibition rate, 10 nM; for inhibition at 0.1 µM: compound 100 nM, read-out: VEGFR2 inhibition rate, 100 nM. An excerpt:
(§1) CSF-1R, PDGFR-α, KDR (VEGFR2) and KIT in vitro Kinase Activity Assay:
(§2) • ENVISION (Perkinelmer, 2104) • White 384-well MicroPlate (Cat #264706, Nunc) • HTRF kinEASE TK kit main reagents (Cat #62TKOPEC, Cisbio) • TK-biotin substrate • Streptavidin-XL665 • TK Antibody-Cryptate • 5× Enzymatic buffer (5×KB) • Staphylococcal enterotoxin B (SEB) • HTRF Detection buffer • CSF-1R (Cat #PV3249, Invitrogen) • PDGFR-α (Cat #PV3811, Invitrogen) • KDR (Cat #PV3660, Invitrogen) • KIT (Cat #08-156, Carna) • ATP 10 mM (Cat #PV3227, Invitrogen) • DTT 1 M (Cat #D5545, Sigma) • MgCl2 1 M (Cat #M8266, Sigma) • MnCl2 1 M (Cat #244589, Sigma)
(§3) Dilute Substrate-TK and ATP to 5× of the reaction concentration using 1× Kinase Buffer.
(§4) Prepare the 5× enzyme working solution using 1× Kinase Buffer.
(§5) Prepare the 4×Sa-XL665 working solution using Detection Buffer.
(§6) Dilute TK-Ab-Cryptate 100 times using Detection Buffer to prepare the working solution.
(§7) After all reagents were prepared according to the methods described above, except for the enzyme, they were equilibrated to room temperature before starting the sample addition. • a) First, 2.5% DMSO solutions were prepared separately using the pre-prepared 1× kinase buffer (DMSO concentrations that were too high could affect the reaction, so the final concentration of DMSO was controlled at 1%). Then, the corresponding 2.5% DMSO solution for the enzyme was used to dilute the test compounds. Compounds were screened with two concentrations of 100 nM and 10 nM. Except for the control wells, 4 μL of the diluted test compound solution was added to the reaction wells, and 4 μL of the pre-prepared 2.5% DMSO solution was added to the control wells. • b) 2 μL of the pre-prepared TK-biotin substrate solution at the corresponding concentration for the kinase was added to all reaction wells. • c) 2 μL of the pre-prepared enzyme solution at the corresponding concentration was added to all reaction wells except the negative control wells. For the negative control wells, 2 μL of 1× kinase buffer corresponding to the enzyme was added to make up the volume. The plate was sealed with sealing film, mixed gently, and incubated at room temperature for 10 min to allow the compounds to fully interact with the enzyme. • d) 2 μL of the ATP solution at the corresponding concentration for the enzyme was added to all reaction wells to initiate the kinase reaction. ATP concentrations and reaction times for enzyme screening are shown in Table 26 • e) Five minutes before the end of the kinase reaction, the detection solution was prepared. The detection buffer from the kit was used to prepare detection solutions for Streptavidin-XL665 and TK antibody europium cryptate (1:100) at the appropriate concentrations for the two enzymes. • f) After the kinase reaction was completed, 5 μL of the diluted Streptavidin-XL665 solution was added to all reaction wells. After mixing, the diluted TK antibody europium cryptate detection solution was immediately added. • g) The plate was sealed and mixed, incubated at room temperature for 1 hour, and the fluorescence signal was detected using the ENVISION (PerkinElmer) instrument (excitation at 320 nm, emission at 665 nm and 615 nm). The inhibition rate for each well was calculated based on the full-activity control wells and background signal wells, and the average value of the replicates was taken.
On the technique in general: In TR-FRET formats the signal depends on donor and acceptor labels being close together.

The target in experiment [2] is PDGFR-α (Homo sapiens, UniProt P16234). Briefly: PDGFR-α in vitro kinase activity assay (HTRF kinEASE TK). It is filed as biochemical. The note with it: for inhibition at 0.01 µM: compound 10 nM, read-out: PDGFRα inhibition rate, 10 nM; for inhibition at 0.1 µM: compound 100 nM, read-out: PDGFRα inhibition rate, 100 nM.
Excerpt: as §1, §2, §3, §4, §5, §6, §7

Chain of PDGFR-α (P16234 24-1089): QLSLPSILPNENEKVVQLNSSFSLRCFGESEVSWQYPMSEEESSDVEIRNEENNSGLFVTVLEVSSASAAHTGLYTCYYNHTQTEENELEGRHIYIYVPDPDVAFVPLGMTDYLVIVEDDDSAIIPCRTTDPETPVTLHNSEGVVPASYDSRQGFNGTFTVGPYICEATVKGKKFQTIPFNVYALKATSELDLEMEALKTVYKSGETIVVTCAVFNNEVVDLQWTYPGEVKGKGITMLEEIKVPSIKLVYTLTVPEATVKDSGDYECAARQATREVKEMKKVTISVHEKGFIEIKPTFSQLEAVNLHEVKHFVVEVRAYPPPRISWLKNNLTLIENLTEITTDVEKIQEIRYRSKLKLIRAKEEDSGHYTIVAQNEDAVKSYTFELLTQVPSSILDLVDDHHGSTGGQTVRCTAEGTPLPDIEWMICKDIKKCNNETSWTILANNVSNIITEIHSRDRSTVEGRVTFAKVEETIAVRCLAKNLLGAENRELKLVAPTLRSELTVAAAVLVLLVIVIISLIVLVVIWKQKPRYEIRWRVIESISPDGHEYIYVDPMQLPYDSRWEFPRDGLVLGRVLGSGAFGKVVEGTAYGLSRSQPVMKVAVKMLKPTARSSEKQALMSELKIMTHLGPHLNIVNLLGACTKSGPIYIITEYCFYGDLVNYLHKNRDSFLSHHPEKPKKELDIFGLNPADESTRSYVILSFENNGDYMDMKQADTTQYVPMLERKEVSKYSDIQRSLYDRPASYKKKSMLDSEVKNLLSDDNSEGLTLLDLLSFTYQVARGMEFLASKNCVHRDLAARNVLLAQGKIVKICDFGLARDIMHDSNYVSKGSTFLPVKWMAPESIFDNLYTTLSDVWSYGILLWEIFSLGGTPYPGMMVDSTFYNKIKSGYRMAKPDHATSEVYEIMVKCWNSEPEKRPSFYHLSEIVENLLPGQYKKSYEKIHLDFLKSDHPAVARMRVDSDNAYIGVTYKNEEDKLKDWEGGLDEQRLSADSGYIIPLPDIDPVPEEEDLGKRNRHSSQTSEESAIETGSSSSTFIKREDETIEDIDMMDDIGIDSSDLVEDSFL
Chain of KDR (VEGFR2) (P35968 20-1356): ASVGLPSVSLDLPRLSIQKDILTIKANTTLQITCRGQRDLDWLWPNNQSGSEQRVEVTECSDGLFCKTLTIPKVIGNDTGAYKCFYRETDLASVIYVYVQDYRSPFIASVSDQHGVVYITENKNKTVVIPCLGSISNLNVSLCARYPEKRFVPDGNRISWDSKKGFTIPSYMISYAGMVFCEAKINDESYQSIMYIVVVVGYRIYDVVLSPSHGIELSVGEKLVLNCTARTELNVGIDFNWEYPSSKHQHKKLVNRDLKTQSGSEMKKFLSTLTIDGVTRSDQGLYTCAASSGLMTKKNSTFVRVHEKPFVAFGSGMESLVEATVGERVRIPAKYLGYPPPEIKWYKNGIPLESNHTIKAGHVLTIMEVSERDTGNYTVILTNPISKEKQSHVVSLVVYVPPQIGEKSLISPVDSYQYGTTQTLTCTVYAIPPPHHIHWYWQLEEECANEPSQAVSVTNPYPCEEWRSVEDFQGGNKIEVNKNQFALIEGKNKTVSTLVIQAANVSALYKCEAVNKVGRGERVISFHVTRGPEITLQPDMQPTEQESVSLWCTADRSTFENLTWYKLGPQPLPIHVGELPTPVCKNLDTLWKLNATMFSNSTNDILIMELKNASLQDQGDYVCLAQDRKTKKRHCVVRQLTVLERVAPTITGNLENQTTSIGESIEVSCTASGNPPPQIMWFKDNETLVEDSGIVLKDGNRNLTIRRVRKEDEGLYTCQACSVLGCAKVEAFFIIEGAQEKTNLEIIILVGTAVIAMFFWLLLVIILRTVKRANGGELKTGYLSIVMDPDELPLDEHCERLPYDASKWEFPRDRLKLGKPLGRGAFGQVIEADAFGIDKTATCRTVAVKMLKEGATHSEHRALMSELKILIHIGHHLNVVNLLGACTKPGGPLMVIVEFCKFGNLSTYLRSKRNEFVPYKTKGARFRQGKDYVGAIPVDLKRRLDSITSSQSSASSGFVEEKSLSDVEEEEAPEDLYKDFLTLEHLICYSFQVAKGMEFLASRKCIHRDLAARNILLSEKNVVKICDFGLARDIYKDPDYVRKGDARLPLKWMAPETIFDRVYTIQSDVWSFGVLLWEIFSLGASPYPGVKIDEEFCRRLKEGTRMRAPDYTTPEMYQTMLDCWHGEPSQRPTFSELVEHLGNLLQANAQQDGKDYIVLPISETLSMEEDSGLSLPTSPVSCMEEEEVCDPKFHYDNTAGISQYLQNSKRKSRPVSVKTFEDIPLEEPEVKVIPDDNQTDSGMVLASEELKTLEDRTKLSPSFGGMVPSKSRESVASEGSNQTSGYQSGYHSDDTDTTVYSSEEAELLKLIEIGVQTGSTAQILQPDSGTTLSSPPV

In the case of `CN(c1cncc(-c2cnn(C)c2)c1)[C@H]1CCc2c(C(=O)Nc3cccc(C4CC4)c3)cccc21` [Compound 22a, (S)—N-(3-cyclopropylphenyl)-1-(methyl (5-(1-methyl-1H-pyrazol-4-yl)pyridin-3-yl)amino)-2,3-dihydro-1H-indene-4-carboxamide], in experiment [1], the inhibition at 0.01 µM came out at 52.5% and the inhibition at 0.1 µM was 96.4%. For the same compound, in experiment [2], the inhibition at 0.01 µM is 62.9% and the inhibition at 0.1 µM amounted to 60.5%.

Take `CN1CCc2nc(NC(=O)c3cccc4c3CC[C@@H]4Oc3cncc(-c4cnn(C)c4)c3)sc2C1` [Compound 19f]: in experiment [1], the inhibition at 0.01 µM amounted to 22.7% and the inhibition at 0.1 µM was 88.9%. In experiment [2], the inhibition at 0.01 µM is 14.5% and the inhibition at 0.1 µM amounted to 67.2%.

As to `Cc1cc(NC(=O)c2cccc3c2CC[C@@H]3Oc2cncc(-c3cnn(C)c3)c2)cc(C)n1` [Compound 19k, (S)—N-(2,6-dimethylpyridin-4-yl)-1-((5-(1-methyl-1H-pyrazol-4-yl)pyridin-3-yl)oxy)-2,3-dihydro-1H-indene-4-carboxamide], in experiment [1], the inhibition at 0.01 µM came to 53% and the inhibition at 0.1 µM was 99.1%. Besides, in experiment [2], the inhibition at 0.01 µM stood at 13.9% and the inhibition at 0.1 µM was 74.3%.

With `Cn1ncc2ncc(N[C@H]3CCc4c(C(=O)Nc5cccc(C6CC6)c5)cccc43)cc21` [Compound 73, (S)—N-(3-cyclopropylphenyl)-1-((1-methyl-1H-pyrazolo[4,3-b]pyridin-6-yl)amino)-2,3-dihydro-1H-indene-4-carboxamide], in experiment [1], the inhibition at 0.01 µM worked out at 68.3% and the inhibition at 0.1 µM is 100%. For the same compound, in experiment [2], the inhibition at 0.01 µM was 90% and the inhibition at 0.1 µM is 100%.

On to `Cn1cc2ncc(O[C@H]3CCc4c(C(=O)Nc5nn(C)c6ccccc56)cccc43)cc2n1` [Compound 76al], for which, in experiment [1], the inhibition at 0.01 µM is 99.1% and the inhibition at 0.1 µM amounted to 95.6%. In experiment [2], the inhibition at 0.01 µM came to 97.6% and the inhibition at 0.1 µM came to 97.2%.

In the case of `Cn1cc(-c2cncc(O[C@H]3CCc4c(C(=O)Nc5cncc(Cl)c5)cccc43)c2)cn1` [Compound 19a, (S)—N-(5-chloropyridin-3-yl)-1-((5-(1-methyl-1H-pyrazol-4-yl)pyridin-3-yl)oxy)-2,3-dihydro-1H-indene-4-carboxamide], in experiment [1], the inhibition at 0.01 µM came out at 92.3% and the inhibition at 0.1 µM was determined as 101%. In experiment [2], the inhibition at 0.01 µM came out at 40.5% and the inhibition at 0.1 µM worked out at 86.2%.

With `CN(c1cnc2cn(C)nc2c1)[C@H]1CCc2c(C(=O)Nc3cncc(Cl)c3)cccc21` [Compound 80k], in experiment [1], the inhibition at 0.01 µM was 43% and the inhibition at 0.1 µM came out at 91.9%. For the same compound, in experiment [2], the inhibition at 0.01 µM was 19% and the inhibition at 0.1 µM was 51.2%.

Turning to `Cn1cc(-c2cncc(O[C@H]3CCc4c(C(=O)Nc5cccc(C6CC6)c5)cccc43)c2)cn1` [Compound 19b], in experiment [1], the inhibition at 0.01 µM was found to be 93.6% and the inhibition at 0.1 µM is 102%. For the same compound, in experiment [2], the inhibition at 0.01 µM turned out to be 22.9% and the inhibition at 0.1 µM amounted to 97.1%.

Take `CN(C)Cc1cncc(NC(=O)c2cccc3c2CC[C@@H]3Oc2cncc(-c3cnn(C)c3)c2)c1` [Compound 19h]: the inhibition at 0.01 µM in experiment [1] was 24.6%; in experiment [2], 3.8%. The inhibition at 0.1 µM in experiment [1] amounted to 84.4%; in experiment [2], 68.3%.

For the compound `Cn1cc(-c2cncc(N[C@H]3CCc4c(Nc5cc(C(C)(C)C)on5)cccc43)c2)cn1` [Compound 41, (S)—N^4-(5-(tert-butyl)isoxazol-3-yl)-N^1-(5-(1-methyl-1H-pyrazol-4-yl)pyridin-3-yl)-2,3-dihydro-1H-indene-1,4-diamine], in experiment [1], the inhibition at 0.01 µM turned out to be 18.6% and the inhibition at 0.1 µM worked out at 63.9%. Besides, in experiment [2], the inhibition at 0.01 µM came out at 55.5% and the inhibition at 0.1 µM amounted to 100%.

For `CN(c1cnc2cn(C)nc2c1)[C@H]1CCc2c(C(=O)Nc3nn(C)c4ccccc34)cccc21` [Compound 80l], in experiment [1], the inhibition at 0.01 µM stood at 95% and the inhibition at 0.1 µM amounted to 100%. In addition, in experiment [2], the inhibition at 0.01 µM amounted to 69.1% and the inhibition at 0.1 µM came out at 96.9%.

Consider `Cn1cc2ncc(O[C@H]3CCc4c(C(=O)Nc5nn(C)c6cccc(F)c56)cccc43)cc2n1` [Compound 76aw], for which, in experiment [1], the inhibition at 0.01 µM came to 89.9% and the inhibition at 0.1 µM worked out at 101%. In addition, in experiment [2], the inhibition at 0.01 µM stood at 88.5% and the inhibition at 0.1 µM turned out to be 102%.

On to `Cc1cncc(NC(=O)c2cccc3c2CC[C@@H]3Nc2cncc(-c3cnn(C)c3)c2)c1` [Compound 14as], for which, in experiment [1], the inhibition at 0.01 µM was 88.4% and the inhibition at 0.1 µM stood at 102%. Moreover, in experiment [2], the inhibition at 0.01 µM is 91% and the inhibition at 0.1 µM is 101%.

As to `Cn1cc(-c2cnc(N)c(O[C@H]3CCc4c(C(=O)Nc5cccc(C6CC6)c5)cccc43)c2)cn1` [Compound 4, (S)-1-((2-amino-5-(1-methyl-1H-pyrazol-4-yl)pyridin-3-yl)oxy)-N-(3-cyclopropylphenyl)-2,3-dihydro-1H-indene-4-carboxamide], the inhibition at 0.01 µM in experiment [1] is 97.8%; in experiment [2], 90.9%. In addition, the inhibition at 0.1 µM came out at 100% in experiment [1] and 96.8% in experiment [2].

As for `Cn1ncc2ncc(N[C@H]3CCc4c(Nc5cc(C(C)(C)C)on5)cccc43)nc21` [Compound 86, (S)—N^4-(5-(tert-butyl)isoxazol-3-yl)-N1-(1-methyl-1H-pyrazolo[3,4-b]pyrazin-6-yl)-2,3-dihydro-1H-indene-1,4-diamine], in experiment [1], the inhibition at 0.01 µM was found to be 12.9% and the inhibition at 0.1 µM stood at 70.1%. Moreover, in experiment [2], the inhibition at 0.01 µM was 26.8% and the inhibition at 0.1 µM came to 96.5%.

As to `Cn1cc2ncc(O[C@H]3CCc4c(C(=O)Nc5cncc(Cl)c5)cccc43)cc2n1` [Compound 76ai], in experiment [1], the inhibition at 0.01 µM came to 96.5% and the inhibition at 0.1 µM turned out to be 102%. For the same compound, in experiment [2], the inhibition at 0.01 µM was 37.8% and the inhibition at 0.1 µM amounted to 89.3%.

Take `CN(c1cncc(-c2cnn(C)c2)c1)[C@H]1CCc2c(C(=O)Nc3cncc(Cl)c3)cccc21` [Compound 21, (S)—N-(5-chloropyridin-3-yl)-1-(methyl (5-(1-methyl-1H-pyrazol-4-yl)pyridin-3-yl)amino)-2,3-dihydro-1H-indene-4-carboxamide]: in experiment [1], the inhibition at 0.01 µM came to 22.3% and the inhibition at 0.1 µM is 62.6%. Also, in experiment [2], the inhibition at 0.01 µM was found to be 7.7% and the inhibition at 0.1 µM came out at 38.7%.

Turning to `Cc1cncc(NC(=O)c2cccc3c2CC[C@@H]3Oc2cncc(-c3cnn(C)c3)c2)c1` [Compound 19j], the values for the inhibition at 0.01 µM in experiment [1] and in experiment [2] were 91.7% and 23.5%, respectively. Besides, the results for the inhibition at 0.1 µM in experiment [1] and in experiment [2] were 102% and 79.7%, respectively.

As for `Cn1cc(-c2cncc(N[C@H]3CCc4c(C(=O)Nc5ccc(C(F)(F)F)nc5)cccc43)c2)cn1` [Compound 14ah], in experiment [1], the inhibition at 0.01 µM is 26.8% and the inhibition at 0.1 µM worked out at 58.1%. Besides, in experiment [2], the inhibition at 0.01 µM was 67.6% and the inhibition at 0.1 µM worked out at 99.4%.

With `Cc1cccc(NC(=O)c2cccc3c2CC[C@@H]3Oc2cnc3cn(C)nc3c2)n1` [Compound 76bd], the results for the inhibition at 0.01 µM in experiment [1] and in experiment [2] were 93.2% and 32%, respectively. For the same compound, the inhibition at 0.1 µM worked out at 97% in experiment [1] and 85.7% in experiment [2].

Turning to `Cn1cc2ncc(N[C@H]3CCc4c(C(=O)Nc5nc(C6CC6)cs5)cccc43)cc2n1` [Compound 74h, (S)—N-(4-cyclopropylthiazol-2-yl)-1-((2-methyl-2H-pyrazolo[4,3-b]pyridin-6-yl)amino)-2,3-dihydro-1H-indene-4-carboxamide], in experiment [1], the inhibition at 0.01 µM was found to be 60.3% and the inhibition at 0.1 µM was 94.9%. Besides, in experiment [2], the inhibition at 0.01 µM was determined as 29.3% and the inhibition at 0.1 µM was determined as 94.8%.

The term inhibition denotes the drop in the measured response relative to a control, in per cent.

The values are drawn from patent US20260125359A1, “HETEROARYL COMPOUNDS AS MULTI-TARGET PROTEIN KINASE INHIBITORS” (FUJIAN HAIXI PHARMACEUTICALS CO., LTD., priority 2023, published 2026).
